Measured values: PMC9078569, “Understanding the inhibitory mechanism of tea polyphenols against tyrosinase using fluorescence spectroscopy, cyclic voltammetry, oximetry, and molecular simulations” (RSC Advances, 2018)
Like-named read-outs stand apart in the source and are kept apart here.

Columns and labels:
[1] = target: T1, Tyrosinase (TYR, EC1.14.18.1) from mushroom (Agaricus bisporus, UniProt C7FF04); experiment: Inhibition of diphenolase activity of tyrosinase with L-DOPA as substrate (spectroscopy at 475 nm; HPLC for catechin); assay type: biochemical
T1 construct: purchased Sigma-Aldrich
Experimental: The inhibitory activity of the TPs, i.e., catechin, ECG, and EGCG, and a positive control, i.e., KA, against diphenolase activity of tyrosinase was measured with L-DOPA as a substrate using the reported spectroscopy method.[13,24] Assays were conducted in a 96-well micro-plate and a spectrophotometer reader was used to determine the absorbance.[25] Briefly, 6 μL of 1000 unit per mL tyrosinase solution was combined with potassium phosphate buffer (pH 6.5) and 1 mM KA or TPs (both dissolved in potassium phosphate buffer, pH 6.5). After pre-incubating at 25 °C for 5 min, 150 μL of 1 mM L-DOPA aqueous solution was added, followed by incubation at 25 °C for 10 min, again, before the concentration determination of DOPA quinone at 475 nm absorbance. The total volume of each reaction system was 300 μL. […] The inhibitory activity was expressed by IC50 value, which is equal to the concentration of inhibitor at 50% inhibitory rate according to the following equation:[25]1 [drawing 1] where, A is the optical density (OD475) of potassium phosphate buffer; B, C and D are the OD475 of potassium phosphate buffer with tyrosinase, with both TPs and tyrosinase, and with TPs, respectively.

[2] = test system: Tyrosinase (TYR, EC1.14.18.1) from mushroom; experiment: Fluorescence quenching of tyrosinase by TPs (Stern–Volmer analysis); assay type: binding; settings: for bimolecular quenching constant (κq): calculated by KSV/τ0, τ0 10^−8 s; for Stern–Volmer quenching constant (KSV): excited at 274 nm, pH 6.5; for binding constant (KA): static quenching equation
Experimental: The fluorescence spectrum of the TP-TYR complex was measured according to our previous work.[27] Briefly, 10 mM TP was titrated into 3 mL potassium phosphate buffer (pH 6.5) containing 10 units tyrosinase under continuous stirring and nitrogen exists. After 5 minutes, tyrosinase was excited at 274 nm and the emission spectrum over the range of 280 nm to 400 nm was detected through a 3 nm slit. The emission spectrum of the tyrosinase solution was also directly measured as a background.
Fluorescence quenching mechanism is usually divided into static or dynamic manner.[46] To clarify the quenching mechanism of the interaction between tyrosinase and TPs, we analyzed the fluorescence quenching data using the Stern–Volmer equation.[47]2 [drawing 2] where F0 and F are the relative fluorescence intensities before and after the addition of inhibitor, respectively; κq is the bimolecular quenching rate constant; τ0 is the fluorescence lifetime at 10^−8 s for most biological macromolecules,[48] [Q] is the concentration of inhibitor and KSV is the Stern–Volmer quenching constant. The Stern–Volmer quenching constant (KSV) determined by linear regression of a curve of F0/F versus [Q] was plotted in Fig. 2 (inset). As listed in Table 1, the KSV value of ECG with less one hydroxyl group on ring B is much higher than that of EGCG. Good linear relationships in three Stern–Volmer plots of TPs are generally the indication of a single type of quenching manner. The calculated κq values by KSV/τ0 are 0.48 × 10^12, 4.10 × 10^12 and 3.13 × 10^12 M^−1 for catechin, ECG and EGCG, respectively. […] For static quenching mechanism, the binding site number (n) and association constant (KA) can be obtained by the following equation:[49]3 [drawing 3]

[3] = test system: Tyrosinase (TYR, EC1.14.18.1) from mushroom; experiment: Oximetry: oxygen utilization in oxidation of TPs by tyrosinase and of L-DOPA by the remaining tyrosinase; assay type: biochemical; settings: for inactivation rate (k2) of tyrosinase / oxidation rate (k1): fit of oxygen utilization curve, 30 °C, pH 6.5; for partition ratio (r): molecules of inhibitor required to inactivate one molecule of tyrosinase: intercept on abscissa, ESI Fig. 3
Experimental: The oxygen consumption in the process of tyrosinase interacting with TPs was monitored with the reported method.[28] Briefly, 0.4 mL of 8.2 mM TP was added to 19.2 mL phosphate buffer (pH 6.5). After equilibrating at 30 °C for 5 min, 0.4 mL of 500 unit per ml tyrosinase was injected to TP solution under continuous stirring. The decrease of oxygen was monitored with the dissolved oxygen meter. In order to evaluate the remaining activity of tyrosinase, L-DOPA was added to the above mixture of tyrosinase and TP after 5 minutes if no oxygen decreasing was observed, followed by monitoring the secondary oxygen utilization in the oxidation reaction of L-DOPA catalyzed by the remaining tyrosinase. The concentration of L-DOPA was 194 μM.
To further reveal tyrosinase inhibitory mechanisms of TPs, we monitored oxygen utilization against time starting from the injecting of TPs into tyrosinase solution using oximetry. The corresponding time-dependent curves of oxygen utilization are depicted in Fig. 4A. In the initial stage, the increase of oxygen utilization for TPs further corroborates that TPs could be oxidized by tyrosinase like-as substrate manner. The time-dependent curves of oxygen utilization can be better fitted with the following equation:[28]4 [drawing 4] where, Ut is the oxygen consumption at time t; E0 is the initial amount of tyrosinase; k1 and k2 are the oxidation rate and the inactivation rate of tyrosinase, respectively. As listed in Table 2, ECG and catechin can inactivate tyrosinase with inactivation rate (k2) of 0.018 and 0.016, respectively, while the inactivation rate of EGCG is ∼4 times lower than catechin. […] Furthermore, the catecholase activities of residual tyrosinase were evaluated by the oxygen utilization of L-DOPA. […] The slope (K) of oxygen consumption curve is positive proportional to the amount of residual tyrosinase.[64] Obviously, the remaining quantity of tyrosinase for EGCG is largest, while the residual amount is least for ECG. […] In this inactivation pathway, the catechol is converted to an intermediate by deprotonation and reductive elimination along with the leaving of forming Cu(0) from catalytic center, leading to the irreversible inactivation of tyrosinase.[28] However, the oxidation of ring B on EGCG or ring G on both ECG and EGCG (the pyrogallol group) catalyzed by tyrosinase should be competitive with the natural substrate (such as L-DOPA) through the diphenolase-like catalytic pathway (as shown in Fig. 5), because the three adjacent hydroxyl groups on the pyrogallol group having larger steric hindrance and worse orientation were unfavorable to the insert of additional oxygen on the aromatic ring.[28] Tyrosinase at last can be reactivated after catalyzing the oxidation of two molecules of EGCG, accounting for the lower inhibitory activity of EGCG than ECG and catechin. […] As shown in ESI Fig. 3 ^† (the intercept on abscissa), inactivating one molecule of tyrosinase requires 14.7 molecules of ECG or 38.7 molecules of catechin, being better consistent with their inactivation rate. The lower inactivation efficiency against tyrosinase explained that catechin has weaker inhibitory activity than ECG.

[4] = diphenolase activity, L-DOPA substrate, pH 6.5, 25 °C, read-out: IC50

T1 sequence (C7FF04 1-392): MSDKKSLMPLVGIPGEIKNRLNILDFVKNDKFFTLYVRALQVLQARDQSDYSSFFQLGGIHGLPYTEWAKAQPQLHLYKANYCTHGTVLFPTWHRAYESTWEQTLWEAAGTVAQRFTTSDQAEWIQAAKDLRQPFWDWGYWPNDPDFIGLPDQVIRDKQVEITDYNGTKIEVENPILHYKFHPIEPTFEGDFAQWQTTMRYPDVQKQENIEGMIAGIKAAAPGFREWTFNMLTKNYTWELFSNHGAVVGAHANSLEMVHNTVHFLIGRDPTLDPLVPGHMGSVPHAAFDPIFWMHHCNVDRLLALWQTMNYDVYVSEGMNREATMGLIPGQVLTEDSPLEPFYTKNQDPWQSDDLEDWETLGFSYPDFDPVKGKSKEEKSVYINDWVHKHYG

| association constant (KA) [2] | bimolecular quenching constant (κq) [2] | Stern–Volmer quenching constant (KSV) [2] | binding constant (KA) [2] | inactivation rate (k2) of tyrosinase [3] | oxidation rate (k1) [3] | IC50 [1, 4] | inactivation rate, times lower than catechin [3] | slope (K) of the residual tyrosinase oxidizing L-DOPA substrate ([3]; oxygen utilization, 194 μM L-DOPA added after TP) | Compound | IC50 [1] | tyrosinase inhibitory activity, fold stronger than that of EGCG ([1]; by IC50 values) | partition ratio (r): molecules of inhibitor required to inactivate one molecule of tyrosinase [3] |
| --- | --- | --- | --- | --- | --- | --- | --- | --- | --- | --- | --- | --- |
| 0.04 × 10^5 | 4.8e+11 M⁻¹ s⁻¹ | 4800 M⁻¹ | 0.04 ×10^5 | 0.016 | 0.063 | 57.1 µM | – | – | Oc1cc(O)c2c(c1)OC(c1ccc(O)c(O)c1)C(O)C2 (single isomer, unassigned; (+)) [Catechin, (+)-catechin] | – | – | 38.7 molecules |
| 3.07 × 10^5 | 3.13e+12 M⁻¹ s⁻¹ | 31300 M⁻¹ | 3.07 ×10^5 | 0.004 | 0.007 | 142 µM | ~4 times | 0.39 | O=C(OC1Cc2c(O)cc(O)cc2OC1c1cc(O)c(O)c(O)c1)c1cc(O)c(O)c(O)c1 (single isomer, unassigned; (-)) [EGCG, (−)-epigallocatechin-3-O-gallate] | – | – | – |

| Compound | association constant (KA) [2] | bimolecular quenching constant (κq) [2] | Stern–Volmer quenching constant (KSV) [2] | binding constant (KA) [2] | inactivation rate (k2) of tyrosinase [3] | oxidation rate (k1) [3] | IC50 [1, 4] | inactivation rate, times lower than catechin [3] | slope (K) of the residual tyrosinase oxidizing L-DOPA substrate ([3]; oxygen utilization, 194 μM L-DOPA added after TP) | IC50 [1] | tyrosinase inhibitory activity, fold stronger than that of EGCG ([1]; by IC50 values) | partition ratio (r): molecules of inhibitor required to inactivate one molecule of tyrosinase [3] |
| --- | --- | --- | --- | --- | --- | --- | --- | --- | --- | --- | --- | --- |
| O=C(OC1Cc2c(O)cc(O)cc2OC1c1ccc(O)c(O)c1)c1cc(O)c(O)c(O)c1 (single isomer, unassigned; (-)) [ECG, (−)-epicatechin gallate] | 0.53 × 10^5 | 4.1e+12 M⁻¹ s⁻¹ | 41000 M⁻¹ | 0.53 ×10^5 | 0.018 | 0.068 | – | – | – | 22.6 µM | 6 fold | 14.7 molecules |
